Patent US12129246B1, “Hydroquinazoline derivatives for the treatment of a disease or disorder” (Novartis AG, priority 2023, dated 2024)
Read-outs that look alike come from different tables or passages of the source.

Experiments:
human NPR1 = molecular target: T1, human NPR1 (Homo sapiens, UniProt P16066); assay: Cellular cGMP production assay, human NPR1 expressing CHO-K1 cells (CisBio HTRF); assay type: cell-based; conditions: for AC50: cGMP production, 30 min at 37° C., 12-point dose-response from 30 μM; for Human NPR1 Amax (% of ANP): maximum cGMP production as percentage of the maximum cGMP produced with ANP
T1 construct: host or cells: CHO-K1
T1 sequence (P16066 33-1061): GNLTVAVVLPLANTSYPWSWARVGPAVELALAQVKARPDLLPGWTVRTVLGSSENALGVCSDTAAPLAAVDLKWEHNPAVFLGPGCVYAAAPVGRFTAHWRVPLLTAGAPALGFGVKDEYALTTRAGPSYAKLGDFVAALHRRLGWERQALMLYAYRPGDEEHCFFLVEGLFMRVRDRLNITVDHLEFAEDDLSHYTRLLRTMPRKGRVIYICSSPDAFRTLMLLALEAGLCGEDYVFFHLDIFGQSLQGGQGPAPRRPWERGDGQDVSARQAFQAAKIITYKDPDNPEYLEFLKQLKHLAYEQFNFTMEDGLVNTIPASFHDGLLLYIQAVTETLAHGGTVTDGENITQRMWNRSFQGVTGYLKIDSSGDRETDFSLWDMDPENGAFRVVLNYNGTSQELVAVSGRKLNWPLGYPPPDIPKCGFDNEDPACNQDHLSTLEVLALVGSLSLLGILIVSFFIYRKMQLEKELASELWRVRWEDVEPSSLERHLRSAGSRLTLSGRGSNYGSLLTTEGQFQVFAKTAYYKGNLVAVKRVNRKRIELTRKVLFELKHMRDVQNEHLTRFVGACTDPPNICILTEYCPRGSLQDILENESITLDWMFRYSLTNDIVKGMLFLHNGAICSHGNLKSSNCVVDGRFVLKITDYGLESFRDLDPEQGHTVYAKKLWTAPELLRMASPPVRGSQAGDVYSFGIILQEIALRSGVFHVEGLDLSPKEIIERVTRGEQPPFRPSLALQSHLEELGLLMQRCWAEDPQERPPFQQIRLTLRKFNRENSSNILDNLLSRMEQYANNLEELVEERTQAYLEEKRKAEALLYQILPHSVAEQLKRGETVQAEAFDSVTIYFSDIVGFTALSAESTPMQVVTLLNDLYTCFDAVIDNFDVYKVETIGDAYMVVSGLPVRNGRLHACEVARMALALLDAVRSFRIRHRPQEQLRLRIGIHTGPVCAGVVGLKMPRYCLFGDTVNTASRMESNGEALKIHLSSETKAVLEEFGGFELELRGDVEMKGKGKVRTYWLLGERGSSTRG
Method: (§1) Cellular cGMP is a major second messenger that mediates cell activities and is synthesized by activated NPR1 triggered by binding of the natural ligand ANP. […] The assay was performed according to manufacturer's instructions with minor deviations. […] All compound stocks were diluted in PBS+0.1% BSA at 2-fold the final assay concentration. After addition of 10 μL/well of assay buffer (PBS+0.1% BSA+1 mM IBMX) and 10 μL/well of the compounds in different concentrations (12-point dose-response with 3-fold dilutions from a top concentration of 30 μM), the plate was incubated for 30 min at 37° C. to allow for cGMP production. In parallel, a standard curve using a calibrator (contained in the kit) was generated. The cells were lysed and a mix of cGMP-d2 and anti-cGMP-cryptate was added and incubated for 1 h at room temperature. The readout was performed using an Envision plate reader (PerkinElmer) with an excitation wavelength of 317 nm and an emission wavelength of 665 nm. cGMP concentration (Delta F [° %]) was calculated according to the following formulae: […]

monkey NPR1 = monkey NPR1 (Macaca fascicularis, UniProt A0A7N9DBT9); assay: Cellular cGMP production assay, monkey NPR1 expressing CHO-K1 cells (CisBio HTRF); assay type: cell-based; conditions: for Monkey NPR1 Amax (% of ANP): maximum cGMP production as percentage of the maximum cGMP produced with ANP
Method: as §1

[1] = cGMP production, monkey NPR1 CHO-K1 cells, 30 min at 37° C., 12-point dose-response from 30 μM, read-out: Monkey NPR1 AC50

Sequence of monkey NPR1 (A0A7N9DBT9 entry or part of it): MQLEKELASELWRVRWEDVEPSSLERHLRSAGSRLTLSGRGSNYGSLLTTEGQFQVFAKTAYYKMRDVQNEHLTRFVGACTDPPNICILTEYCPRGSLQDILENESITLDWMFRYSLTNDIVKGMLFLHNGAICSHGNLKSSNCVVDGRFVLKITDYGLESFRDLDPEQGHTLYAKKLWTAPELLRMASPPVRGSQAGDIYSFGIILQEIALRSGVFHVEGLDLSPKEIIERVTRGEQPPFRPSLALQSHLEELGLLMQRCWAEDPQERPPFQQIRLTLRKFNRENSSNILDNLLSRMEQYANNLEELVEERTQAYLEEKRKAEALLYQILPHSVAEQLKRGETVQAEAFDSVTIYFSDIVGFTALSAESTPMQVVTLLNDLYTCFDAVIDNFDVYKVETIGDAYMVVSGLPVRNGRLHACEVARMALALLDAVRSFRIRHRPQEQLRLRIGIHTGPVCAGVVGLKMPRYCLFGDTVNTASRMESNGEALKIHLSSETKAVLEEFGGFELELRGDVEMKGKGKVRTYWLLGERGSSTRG

Compound | AC50 (human NPR1) | Human NPR1 Amax (% of ANP) (human NPR1) | AC50 (monkey NPR1; [1]) | Monkey NPR1 Amax (% of ANP) (monkey NPR1; monkey NPR1 CHO-K1 cells) | AC50 (monkey NPR1)
CC[C@@H](N(C)c1nc2c(c(N[C@@H](CN3CCC[C@H](C)C3)c3cnn(CC)c3)n1)C[C@H](c1cccc(F)c1)CC2)C12CC(C(=O)O)(C1)C2 [Compound 13, 3-((R)-1-(((R)-4-(((R)-1-(1-ethyl-1H-pyrazol-4-yl)-2-((S)-3-methylpiperidin-1-yl)ethyl)amino)-6-(3-fluorophenyl)-5,6,7,8-tetrahydroquinazolin-2-yl)(methyl)amino)propyl)bicyclo[1.1.1]pentane-1-carboxylic acid] | 94 nM | 99.405 % of ANP | 64 nM | 100.145 % of ANP | –
CC[C@H]([C@H]1CC[C@H](C(=O)O)CC1)N(C)c1nc2c(c(N[C@@H](CN3CCC[C@H](C)C3)c3cnn(C)c3)n1)C[C@H](c1ccc(F)cc1)CC2 [Compound 14, (1R,4r)-4-((R)-1-(((R)-6-(4-fluorophenyl)-4-(((R)-1-(1-methyl-1H-pyrazol-4-yl)-2-((S)-3-methylpiperidin-1-yl)ethyl)amino)-5,6,7,8-tetrahydroquinazolin-2-yl)(methyl)amino)propyl)cyclohexane-1-carboxylic acid] | 97 nM | 94.761 % of ANP | 62 nM | 88.286 % of ANP | –
CC[C@@H](Nc1nc2c(c(N[C@@H](CN3C4CCCC3CCC4)c3cnn(C)c3)n1)C[C@H](c1cccc(F)c1)CC2)[C@H]1CC[C@H](C(=O)O)CC1 [Compound 15, (1R,4r)-4-((R)-1-(((R)-4-(((R)-2-((1S,5S)-9-azabicyclo[3.3.1]nonan-9-yl)-1-(1-methyl-1H-pyrazol-4-yl)ethyl)amino)-6-(3-fluorophenyl)-5,6,7,8-tetrahydroquinazolin-2-yl)amino)propyl)cyclohexane-1-carboxylic acid] | 102 nM | 106.001 % of ANP | – | 109.175 % of ANP | 92 nM
CC[C@H]([C@H]1CC[C@H](C(=O)O)CC1)N(C)c1nc2c(c(N[C@@H](CN3C4CCCC3CC4)c3cnn(C)c3C)n1)C[C@H](c1cccc(F)c1)CC2 [Compound 16, (1R,4r)-4-((1R)-1-(((6R)-4-(((1R)-2-(8-azabicyclo[3.2.1]octan-8-yl)-1-(1,5-dimethyl-1H-pyrazol-4-yl)ethyl)amino)-6-(3-fluorophenyl)-5,6,7,8-tetrahydroquinazolin-2-yl)(methyl)amino)propyl)cyclohexane-1-carboxylic acid] | 103 nM | 100.021 % of ANP | – | 98.785 % of ANP | 47 nM
CC[C@@H](Nc1nc2c(c(N[C@@H](CN3C4CCCC3CCC4)c3cnn(CC)c3)n1)C[C@H](c1cccc(F)c1)CC2)[C@H]1CC[C@H](C(=O)O)CC1 [Compound 17, (1R,4r)-4-((R)-1-(((R)-4-(((R)-2-((1S,5S)-9-azabicyclo[3.3.1]nonan-9-yl)-1-(1-ethyl-1H-pyrazol-4-yl)ethyl)amino)-6-(3-fluorophenyl)-5,6,7,8-tetrahydroquinazolin-2-yl)amino)propyl)cyclohexane-1-carboxylic acid] | 105 nM | 97.959 % of ANP | – | 99.682 % of ANP | 68 nM
CC[C@H]([C@H]1CC[C@H](C(=O)O)CC1)N(C)c1nc2c(c(N[C@@H](CN3C4CCCC3CCC4)c3cnn(CC)c3)n1)C[C@H](c1cccc(F)c1)CC2 [Compound 18, (1R,4r)-4-((R)-1-(((R)-4-(((R)-2-((1S,5S)-9-azabicyclo[3.3.1]nonan-9-yl)-1-(1-ethyl-1H-pyrazol-4-yl)ethyl)amino)-6-(3-fluorophenyl)-5,6,7,8-tetrahydroquinazolin-2-yl)(methyl)amino)propyl)cyclohexane-1-carboxylic acid] | 107 nM | 97.609 % of ANP | – | 100.607 % of ANP | 71 nM
CC[C@H]([C@H]1CC[C@H](C(=O)O)CC1)N(C)c1nc2c(c(N[C@@H](CN3CCC[C@H](CF)C3)c3cnn(C)c3)n1)C[C@H](c1cccc(F)c1)CC2 [Compound 19, (1R,4r)-4-((R)-1-(((R)-4-(((R)-2-((S)-3-(fluoromethyl)piperidin-1-yl)-1-(1-methyl-1H-pyrazol-4-yl)ethyl)amino)-6-(3-fluorophenyl)-5,6,7,8-tetrahydroquinazolin-2-yl)(methyl)amino)propyl)cyclohexane-1-carboxylic acid] | 108 nM | 100.504 % of ANP | 82 nM | 98.174 % of ANP | –
CC[C@@H](Nc1nc2c(c(N[C@@H](CN3CCC[C@H](C)C3)c3cnn(C)c3)n1)C[C@](C)(c1ccccc1F)CC2)[C@H]1CC[C@H](C(=O)O)CC1 [Compound 20, (1R,4r)-4-((R)-1-(((R)-6-(2-fluorophenyl)-6-methyl-4-(((R)-1-(1-methyl-1H-pyrazol-4-yl)-2-((S)-3-methylpiperidin-1-yl)ethyl)amino)-5,6,7,8-tetrahydroquinazolin-2-yl)amino)propyl)cyclohexane-1-carboxylic acid] | 109 nM | 95.253 % of ANP | 60 nM | 92.710 % of ANP | –
CC[C@@H]([C@H]1CC[C@@](F)(C(=O)O)CC1)N(C)c1nc2c(c(N[C@H](CN3CCC[C@@H](C)C3)c3cnn(C)c3)n1)C[C@@H](c1ccccc1)CC2 [Compound 21, (1S,4r)-1-fluoro-4-((S)-1-(methyl((S)-4-(((S)-1-(1-methyl-1H-pyrazol-4-yl)-2-((R)-3-methylpiperidin-1-yl)ethyl)amino)-6-phenyl-5,6,7,8-tetrahydroquinazolin-2-yl)amino)propyl)cyclohexane-1-carboxylic acid] | 111 nM | 96.122 % of ANP | 93 nM | 101.974 % of ANP | –
CC[C@@H](Nc1nc2c(c(N[C@@H](CN3CCC[C@H](C)C3)c3cnn(C(C)C)c3)n1)C[C@H](c1ccccc1)CC2)[C@H]1CC[C@H](C(=O)O)CC1 [Compound 22, (1R,4r)-4-((R)-1-(((R)-4-(((R)-1-(1-isopropyl-1H-pyrazol-4-yl)-2-((S)-3-methylpiperidin-1-yl)ethyl)amino)-6-phenyl-5,6,7,8-tetrahydroquinazolin-2-yl)amino)propyl)cyclohexane-1-carboxylic acid] | 114 nM | 102.676 % of ANP | 74 nM | 103.742 % of ANP | –
CC[C@H]([C@H]1CC[C@H](C(=O)O)CC1)N(C)c1nc2c(c(N[C@@H](CN3CCC[C@H](C)C3)c3cnn(C)c3)n1)C[C@H](c1cccc(F)c1)CC2 [Compound 23, (1R,4r)-4-((R)-1-(((R)-6-(3-fluorophenyl)-4-(((R)-1-(1-methyl-1H-pyrazol-4-yl)-2-((S)-3-methylpiperidin-1-yl)ethyl)amino)-5,6,7,8-tetrahydroquinazolin-2-yl)(methyl)amino)propyl)cyclohexane-1-carboxylic acid] | 115 nM | 120.018 % of ANP | – | 132.182 % of ANP | 72 nM
CC[C@@H](Nc1nc2c(c(N[C@@H](CN3C4CCCC3CC4)c3sc(C)nc3C)n1)C[C@H](c1cccc(F)c1)CC2)[C@H]1CC[C@H](C(=O)O)CC1 [Compound 24, (1R,4r)-4-((1R)-1-(((6R)-4-(((1S)-2-(8-azabicyclo[3.2.1]octan-8-yl)-1-(2,4-dimethylthiazol-5-yl)ethyl)amino)-6-(3-fluorophenyl)-5,6,7,8-tetrahydroquinazolin-2-yl)amino)propyl)cyclohexane-1-carboxylic acid] | 125 nM | 112.884 % of ANP | – | 128.837 % of ANP | 102 nM
